Values of other authors, collected in PubChem BioAssay AID1259409 (Chemical Carcinogenesis Research Information System (CCRIS), 2018).

Test system: rodent chemically induced tumor inhibition, incidence and multiplicity
Assay: CCRIS tumor inhibitor studies
Details: Carcinogen: 7,12-DIMETHYLBENZ[A]ANTHRACENE, 57-97-6, Route [Inhibitor]: SUBCUTANEOUS, Promoter: NONE USED

CC(C)C[C@H]1C(=O)N2CCC[C@H]2[C@]2(O)O[C@](NC(=O)[C@@H]3C=C4c5cccc6[nH]c(Br)c(c56)C[C@H]4N(C)C3)(C(C)C)C(=O)N12
tumour outcome (control, treated, inhibition, significance) (Dose [Inhibitor]: 0.1 MG 1/D FOR 81 D BEGINNING 30 D PRIOR TO FIRST CARCINOGEN DOSE TO 30 D POST LAST CARCINOGEN DOSE (STUDY DURATION: 31, Species: MOUSE, Strain/Sex: BALB/FEMALE, Target Tissue: Type of Lesion: MAMMARY GLAND: CARCINOMA, Dose [Carcinogen]: 1 MG IN SESAME OIL 1/WK FOR 4 WK): 8%, 8%, 0%, not significant | tumour outcome (control, treated, inhibition, significance) (Dose [Inhibitor]: 0.1 MG/30 G BW FOR 81 D BEGINNING 30 D POST LAST CARCINOGEN DOSE (STUDY DURATION: 27 WK), Species: MOUSE, Strain/Sex: BALB/FEMALE, Target Tissue: Type of Lesion: MAMMARY GLAND: CARCINOMA, Dose [Carcinogen]: 1 MG IN SESAME OIL 1/WK FOR 4 WK): 7%, 8%, -14%, not significant | tumour outcome (control, treated, inhibition, significance) (Dose [Inhibitor]: 0.4 MG/100 G BW 1/D FOR 50 D BEGINNING 30 D POST LAST CARCINOGEN DOSE (90 D TO 140 D OF AGE) (STUDY DURATION: 25 WK), Species: RAT, Strain/Sex: LEWIS/FEMALE, Target Tissue: Type of Lesion: MAMMARY GLAND: CARCINOMA, Dose [Carcinogen]: 10 MG IN SESAME OIL ONCE AT 56 D OF AGE AND ONCE AT 63 D OF AGE): 94%, 56%, 40%, p<0.005 | tumour outcome (control, treated, inhibition, significance) (Dose [Inhibitor]: 0.4 MG/100 G BW 1/D FOR 61 D BEGINNING 27 D PRIOR TO FIRST CARCINOGEN DOSE TO 27 D POST LAST CARCINOGEN DOSE (29 TO 90 D, Species: RAT, Strain/Sex: LEWIS/FEMALE, Target Tissue: Type of Lesion: MAMMARY GLAND: CARCINOMA, Dose [Carcinogen]: 10 MG IN SESAME OIL ONCE AT 56 D OF AGE AND ONCE AT 63 D OF AGE): 68%, 60%, 12%, not significant | tumour outcome (control, treated, inhibition, significance) (Dose [Inhibitor]: 0.4 MG/100 G BW 4/WK FOR 20 WK BEGINNING 12 D PRIOR TO FIRST CARCINOGEN DOSE (STUDY DURATION: 152 D), Species: RAT, Strain/Sex: LONG-EVANS/FEMALE, Target Tissue: Type of Lesion: HEMATOPOIETIC SYSTEM: LEUKEMIA (UNDIFFERENTIATED CELL), Dose [Carcinogen]: 10 MG IN SESAME OIL 1/2 WK FOR 12 WK (6 TOTAL DOSES)): 13/40 (33%), 15/41 (36%), -9%, not significant | tumour outcome (control, treated, inhibition, significance) (Dose [Inhibitor]: 0.4 MG/100 G BW 4/WK FOR 35 WK BEGINNING 12 D PRIOR TO FIRST CARCINOGEN DOSE (STUDY DURATION: 257 D), Species: RAT, Strain/Sex: LONG-EVANS/MALE, Target Tissue: Type of Lesion: HEMATOPOIETIC SYSTEM: LEUKEMIA (UNDIFFERENTIATED CELL), Dose [Carcinogen]: 10 MG IN SESAME OIL 1/2 WK FOR 12 WK (6 TOTAL DOSES)): 10/38 (26%), 8/38 (21%), 19%, not significant | tumour outcome (control, treated, inhibition, significance) (Dose [Inhibitor]: 0.4 MG/D FROM 26 TO 93 D OF AGE BEGINNING 30 D PRIOR TO FIRST CARCINOGEN DOSE (STUDY DURATION: 9 MO AFTER LAST DMBA TREA, Species: RAT, Strain/Sex: LEWIS/FEMALE, Target Tissue: Type of Lesion: MAMMARY GLAND: CARCINOMA, Dose [Carcinogen]: 10 MG TWICE ONCE AT 56 D AND ONCE AT 63 D OF AGE): 70%, 62%, 11%, not significant | tumour outcome (control, treated, inhibition, significance) (Dose [Inhibitor]: 0.4 MG/D FROM 30 TO 90 D OF AGE BEGINNING 30 D PRIOR TO CARCINOGEN DOSE (STUDY DURATION: 6 MO AFTER DMBA TREATMENT), Species: RAT, Strain/Sex: SPRAGUE-DAWLEY/FEMALE, Target Tissue: Type of Lesion: MAMMARY GLAND: CARCINOMA, Dose [Carcinogen]: 20 MG ONCE AT 60 D OF AGE): 96%, 82%, 15%, p<0.05 | tumour outcome (control, treated, inhibition, significance) (Dose [Inhibitor]: 0.4 MG/D FROM 30 TO 90 D OF AGE BEGINNING 30 D PRIOR TO CARCINOGEN DOSE (STUDY DURATION: 9 MO AFTER AMBA TREATMENT), Species: RAT, Strain/Sex: SPRAGUE-DAWLEY/FEMALE, Target Tissue: Type of Lesion: MAMMARY GLAND: CARCINOMA, Dose [Carcinogen]: 5 MG ONCE AT 60 D OF AGE): 82%, 60%, 27%, p<0.05 | tumour outcome (control, treated, inhibition, significance) (Dose [Inhibitor]: 0.4 MG/D FROM 30 TO 90 D OF AGE BEGINNING 30 D PRIOR TO CARCINOGEN DOSE (STUDY DURATION: 9 MO AFTER DMBA TREATMENT), Species: RAT, Strain/Sex: SPRAGUE-DAWLEY/FEMALE, Target Tissue: Type of Lesion: MAMMARY GLAND: FIBROADENOMA, Dose [Carcinogen]: 5 MG ONCE AT 60 D OF AGE): 25%, 15%, 40%, not significant | tumour outcome (control, treated, inhibition, significance) (Dose [Inhibitor]: 0.4 MG/D FROM 30 TO 90 D OF AGE BEGINNING 30 D PRIOR TO CARCINOGEN DOSE (STUDY DURATION: 9 MO AFTER LAST DMBA TREATMENT), Species: RAT, Strain/Sex: LONG-EVANS/FEMALE, Target Tissue: Type of Lesion: MAMMARY GLAND: CARCINOMA, Dose [Carcinogen]: 20 MG ONCE AT 60 D OF AGE): 25%, 22%, 12%, not significant | tumour outcome (control, treated, inhibition, significance) (Dose [Inhibitor]: 0.4 MG/D FROM 30 TO 90 D OF AGE BEGINNING 30 D PRIOR TO CARCINOGEN DOSE (STUDY DURATION: 9 MO AFTER LAST DMBA TREATMENT), Species: RAT, Strain/Sex: LONG-EVANS/FEMALE, Target Tissue: Type of Lesion: MAMMARY GLAND: FIBROADENOMA, Dose [Carcinogen]: 20 MG ONCE AT 60 D OF AGE): 12%, 3%, 75%, not significant | tumour outcome (control, treated, inhibition, significance) (Dose [Inhibitor]: 0.4 MG/D FROM 30 TO 90 D OF AGE BEGINNING 30 D PRIOR TO CARCINOGEN DOSE (STUDY DURATION: 12 MO AFTER DMBA TREATMENT), Species: RAT, Strain/Sex: SPRAGUE-DAWLEY/FEMALE, Target Tissue: Type of Lesion: MAMMARY GLAND: CARCINOMA, Dose [Carcinogen]: 1.25 MG ONCE AT 60 D OF AGE): 10%, 10%, 0%, not significant | tumour outcome (control, treated, inhibition, significance) (Dose [Inhibitor]: 0.4 MG/D FROM 30 TO 90 D OF AGE BEGINNING 30 D PRIOR TO CARCINOGEN DOSE (STUDY DURATION: 12 MO AFTER DMBA TREATMENT), Species: RAT, Strain/Sex: SPRAGUE-DAWLEY/FEMALE, Target Tissue: Type of Lesion: MAMMARY GLAND: FIBROADENOMA, Dose [Carcinogen]: 1.25 MG ONCE AT 60 D OF AGE): 90%, 80%, 11%, p<0.05
